In patent US11541028B2, “Peptide pharmaceuticals for treatment of NASH and other disorders” (Mederis Diabetes LLC, priority 2018, dated 2023) one finds EC50 data, which are given here for eight molecules.

One assay concerns the target T1, human glucagon receptor (Homo sapiens, UniProt P47871).
T1 construct: host or cells: CHO cells
Description: DiscoveRx LeadHunter cellular assay, cAMP stimulation, glucagon receptor in CHO cells. The assay is classed as cell-based.

A further assay concerns the target T2, human GLP-1 receptor (Homo sapiens, UniProt P43220).
T2 construct: host or cells: CHO cells
Description: DiscoveRx LeadHunter cellular assay, cAMP stimulation, GLP-1 receptor in CHO cells. Type of assay: cell-based. The conditions noted are these: human GLP-1 receptor in CHO cells (DiscoveRx); read-out: EC50 cAMP GLP-1 R.

Each structure is given as a SMILES string. Bridge positions count the residues as written; N and C are the ends. Square brackets hold non-standard residues; d marks the D form. Peptide text beside a SMILES is read from it. * marks the point of attachment. Melibiouronoyl(1β-O-dodecyl) = CCCCCCCCCCCCO[C@@H]1O[C@H](CO[C@H]2O[C@H](C(=O)*)[C@H](O)[C@H](O)[C@H]2O)[C@@H](O)[C@H](O)[C@H]1O; X2 = CCCCCCCCCCCCCCO[C@@H]1O[C@H](CO[C@H]2O[C@H](C(=O)*)[C@H](O)[C@H](O)[C@H]2O)[C@@H](O)[C@H](O)[C@H]1O; Aib = CC(C)(N)C(=O)O

T1 sequence (P47871 26-477): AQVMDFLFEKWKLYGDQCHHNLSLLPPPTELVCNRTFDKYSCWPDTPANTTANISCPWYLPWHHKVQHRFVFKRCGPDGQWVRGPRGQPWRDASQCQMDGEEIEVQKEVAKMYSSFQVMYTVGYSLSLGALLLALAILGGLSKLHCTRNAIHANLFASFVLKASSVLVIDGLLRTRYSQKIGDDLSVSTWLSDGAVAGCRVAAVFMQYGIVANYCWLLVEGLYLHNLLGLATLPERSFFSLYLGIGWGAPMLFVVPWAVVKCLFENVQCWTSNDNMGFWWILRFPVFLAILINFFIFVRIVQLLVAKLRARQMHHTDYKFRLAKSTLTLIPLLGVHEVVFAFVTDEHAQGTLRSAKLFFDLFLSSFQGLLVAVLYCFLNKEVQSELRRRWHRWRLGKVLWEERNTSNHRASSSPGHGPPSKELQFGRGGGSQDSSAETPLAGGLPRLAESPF
T2 sequence (P43220 24-463): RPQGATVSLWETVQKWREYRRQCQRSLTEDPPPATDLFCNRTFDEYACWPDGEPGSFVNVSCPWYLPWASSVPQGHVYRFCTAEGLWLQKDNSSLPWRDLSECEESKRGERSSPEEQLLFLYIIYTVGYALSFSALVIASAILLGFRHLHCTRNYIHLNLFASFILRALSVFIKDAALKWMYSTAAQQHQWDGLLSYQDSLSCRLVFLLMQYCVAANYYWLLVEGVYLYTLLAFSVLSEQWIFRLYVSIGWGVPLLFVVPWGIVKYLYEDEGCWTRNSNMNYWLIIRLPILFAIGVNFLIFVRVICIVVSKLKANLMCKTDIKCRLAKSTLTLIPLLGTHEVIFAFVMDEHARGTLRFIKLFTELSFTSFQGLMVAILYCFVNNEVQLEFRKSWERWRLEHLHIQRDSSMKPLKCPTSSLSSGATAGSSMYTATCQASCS
Description for human GLP-1 receptor: (§1) A further series of cellular assays was carried out with standard cellular assays (DiscoveRx, LeadHunter assays) using readout of cAMP stimulation or arrestin activation. Compounds were weighed precisely in an amount of about 1 mg and shipped to DiscoveRx for dilution and assay.
Description for human glucagon receptor: as §1

For `CCCCCCCCCCCCCCCCO[C@@H]1O[C@H](CO[C@H]2O[C@H](C(=O)NCCCC[C@H](NC(=O)[C@@H](NC(=O)[C@H](Cc3ccccc3)NC(=O)[C@H](CCC(=O)O)NC(=O)[C@@H]3CCCCNC(=O)CC[C@H](NC(=O)[C@H](CC(=O)O)NC(=O)[C@H](CC(C)C)NC(=O)[C@H](Cc4ccc(O)cc4)NC(=O)[C@H](CCCCN)NC(=O)[C@H](CO)NC(=O)[C@H](Cc4ccc(O)cc4)NC(=O)[C@H](CC(=O)O)NC(=O)[C@H](CO)NC(=O)[C@@H](NC(=O)[C@H](Cc4ccccc4)NC(=O)[C@@H](NC(=O)CNC(=O)[C@H](CCC(N)=O)NC(=O)C(C)(C)NC(=O)[C@@H](N)Cc4c[nH]cn4)[C@@H](C)O)[C@@H](C)O)C(=O)N[C@@H](CCC(N)=O)C(=O)N[C@@H](C)C(=O)N[C@@H](C)C(=O)N3)[C@@H](C)CC)C(=O)N[C@@H](Cc3c[nH]c4ccccc34)C(=O)N[C@@H](CC(C)C)C(=O)N[C@@H](CC(C)C)C(=O)N[C@@H](CCC(N)=O)C(=O)N[C@H](C(=O)O)[C@@H](C)O)[C@H](O)[C@H](O)[C@H]2O)[C@@H](O)[C@H](O)[C@H]1O` [EU-A1578], the EC50 on human glucagon receptor was determined as 0.355 nM; on human GLP-1 receptor, 0.008 nM.

For the molecule `CCCCCCCCCCCCO[C@@H]1O[C@H](CO[C@H]2O[C@H](C(=O)NCCCC[C@H](NC(=O)[C@@H](NC(=O)[C@H](Cc3ccccc3)NC(=O)[C@H](CCC(=O)O)NC(=O)[C@@H]3CCCCNC(=O)CC[C@H](NC(=O)[C@H](CC(=O)O)NC(=O)[C@H](CC(C)C)NC(=O)[C@H](Cc4ccc(O)cc4)NC(=O)[C@H](CCCCN)NC(=O)[C@H](CO)NC(=O)[C@H](Cc4ccc(O)cc4)NC(=O)[C@H](CC(=O)O)NC(=O)[C@H](CO)NC(=O)[C@@H](NC(=O)[C@H](Cc4ccccc4)NC(=O)[C@@H](NC(=O)CNC(=O)[C@H](CCC(N)=O)NC(=O)C(C)(C)NC(=O)[C@@H](N)Cc4c[nH]cn4)[C@@H](C)O)[C@@H](C)O)C(=O)N[C@@H](CCC(=O)O)C(=O)N[C@@H](C)C(=O)N[C@@H](C)C(=O)N3)[C@@H](C)CC)C(=O)N[C@@H](Cc3c[nH]c4ccccc34)C(=O)N[C@@H](CC(C)C)C(=O)N[C@@H](CC(C)C)C(=O)N[C@@H](CCC(N)=O)C(=O)N[C@H](C(=O)O)[C@@H](C)O)[C@H](O)[C@H](O)[C@H]2O)[C@@H](O)[C@H](O)[C@H]1O` [EU-A1581] (H-H[Aib]QGTFTSDYSKYLDEEAAKEFIK(Melibiouronoyl(1β-O-dodecyl))WLLQT-OH; lactam 16-20; N-terminus assumed), the EC50 on human glucagon receptor came to 1.03 nM; at human GLP-1 receptor, 0.086 nM.

For `CCCCCCCCCCCCO[C@@H]1O[C@H](CO[C@H]2O[C@H](C(=O)NCCCC[C@@H]3NC(=O)[C@@H](NC(=O)[C@H](CC(=O)O)NC(=O)[C@H](CC(C)C)NC(=O)[C@H](Cc4ccc(O)cc4)NC(=O)[C@H](CCCCN)NC(=O)[C@H](CO)NC(=O)[C@H](Cc4ccc(O)cc4)NC(=O)[C@H](CC(=O)O)NC(=O)[C@H](CO)NC(=O)[C@@H](NC(=O)[C@H](Cc4ccccc4)NC(=O)[C@@H](NC(=O)CNC(=O)[C@H](CCC(N)=O)NC(=O)C(C)(C)NC(=O)[C@@H](N)Cc4c[nH]cn4)[C@@H](C)O)[C@@H](C)O)CCC(=O)NCCCC[C@@H](C(=O)N[C@@H](CCC(=O)O)C(=O)N[C@@H](Cc4ccccc4)C(=O)N[C@H](C(=O)N[C@@H](CCC(N)=O)C(=O)N[C@@H](Cc4c[nH]c5ccccc45)C(=O)N[C@@H](CC(C)C)C(=O)N[C@@H](CC(C)C)C(=O)N[C@@H](CCC(N)=O)C(=O)N[C@H](C(N)=O)[C@@H](C)O)[C@@H](C)CC)NC(=O)[C@H](C)NC(=O)[C@H](C)NC3=O)[C@H](O)[C@H](O)[C@H]2O)[C@@H](O)[C@H](O)[C@H]1O` [EU-A1586], the EC50 at human glucagon receptor is 0.107 nM; at human GLP-1 receptor, 0.029 nM.

Take `CCCCCCCCCCCCO[C@@H]1O[C@H](CO[C@H]2O[C@H](C(=O)NCCCC[C@@H]3NC(=O)[C@@H](NC(=O)[C@H](CC(=O)O)NC(=O)[C@H](CC(C)C)NC(=O)[C@H](Cc4ccc(O)cc4)NC(=O)[C@H](CCCCN)NC(=O)[C@H](CO)NC(=O)[C@H](Cc4ccc(O)cc4)NC(=O)[C@H](CC(=O)O)NC(=O)[C@H](CO)NC(=O)[C@@H](NC(=O)[C@H](Cc4ccccc4)NC(=O)[C@@H](NC(=O)CNC(=O)[C@H](CCC(N)=O)NC(=O)C(C)(C)NC(=O)[C@@H](N)Cc4c[nH]cn4)[C@@H](C)O)[C@@H](C)O)CCC(=O)NCCCC[C@@H](C(=O)N[C@@H](CCC(=O)O)C(=O)N[C@@H](Cc4ccccc4)C(=O)N[C@H](C(=O)N[C@@H](CCC(N)=O)C(=O)N[C@@H](Cc4c[nH]c5ccccc45)C(=O)N[C@@H](CC(C)C)C(=O)N[C@@H](CC(C)C)C(=O)N[C@@H](CCC(N)=O)C(=O)N[C@H](C(=O)O)[C@@H](C)O)[C@@H](C)CC)NC(=O)[C@H](C)NC(=O)[C@H](C)NC3=O)[C@H](O)[C@H](O)[C@H]2O)[C@@H](O)[C@H](O)[C@H]1O` [EU-A1590]: the EC50 on human glucagon receptor is 0.343 nM; at human GLP-1 receptor, 0.094 nM.

For `CCCCCCCCCCCCO[C@@H]1O[C@H](CO[C@H]2O[C@H](C(=O)NCCCC[C@@H]3NC(=O)[C@@H](NC(=O)[C@H](CC(=O)O)NC(=O)[C@H](CC(C)C)NC(=O)[C@H](Cc4ccc(O)cc4)NC(=O)[C@H](CCCCN)NC(=O)[C@H](CO)NC(=O)[C@H](Cc4ccc(O)cc4)NC(=O)[C@H](CC(=O)O)NC(=O)[C@H](CO)NC(=O)[C@@H](NC(=O)[C@H](Cc4ccccc4)NC(=O)[C@@H](NC(=O)CNC(=O)[C@H](CCC(N)=O)NC(=O)C(C)(C)NC(=O)[C@@H](N)Cc4c[nH]cn4)[C@@H](C)O)[C@@H](C)O)CCC(=O)NCCCC[C@@H](C(=O)N[C@@H](CCC(=O)O)C(=O)N[C@@H](Cc4ccccc4)C(=O)N[C@H](C(=O)N[C@@H](CCC(=O)O)C(=O)N[C@@H](Cc4c[nH]c5ccccc45)C(=O)N[C@@H](CC(C)C)C(=O)N[C@@H](CC(C)C)C(=O)N[C@@H](CCC(N)=O)C(=O)N[C@H](C(N)=O)[C@@H](C)O)[C@@H](C)CC)NC(=O)[C@H](C)NC(=O)[C@H](C)NC3=O)[C@H](O)[C@H](O)[C@H]2O)[C@@H](O)[C@H](O)[C@H]1O` [EU-A1591] (H-H[Aib]QGTFTSDYSKYLDEK(Melibiouronoyl(1β-O-dodecyl))AAKEFIEWLLQT-NH2; lactam 16-20; N-terminus assumed), the EC50 amounted to 0.286 nM at human glucagon receptor and 0.073 nM at human GLP-1 receptor.

Consider `CCCCCCCCCCCCO[C@@H]1O[C@H](CO[C@H]2O[C@H](C(=O)NCCCC[C@@H]3NC(=O)[C@@H](NC(=O)[C@H](CC(=O)O)NC(=O)[C@H](CC(C)C)NC(=O)[C@H](Cc4ccc(O)cc4)NC(=O)[C@H](CCCCN)NC(=O)[C@H](CO)NC(=O)[C@H](Cc4ccc(O)cc4)NC(=O)[C@H](CC(=O)O)NC(=O)[C@H](CO)NC(=O)[C@@H](NC(=O)[C@H](Cc4ccccc4)NC(=O)[C@@H](NC(=O)CNC(=O)[C@H](CCC(N)=O)NC(=O)C(C)(C)NC(=O)[C@@H](N)Cc4c[nH]cn4)[C@@H](C)O)[C@@H](C)O)CCC(=O)NCCCC[C@@H](C(=O)N[C@@H](CCC(=O)O)C(=O)N[C@@H](Cc4ccccc4)C(=O)N[C@H](C(=O)N[C@@H](CCC(=O)O)C(=O)N[C@@H](Cc4c[nH]c5ccccc45)C(=O)N[C@@H](CC(C)C)C(=O)N[C@@H](CC(C)C)C(=O)N[C@@H](CCC(N)=O)C(=O)N[C@H](C(=O)O)[C@@H](C)O)[C@@H](C)CC)NC(=O)[C@H](C)NC(=O)[C@H](C)NC3=O)[C@H](O)[C@H](O)[C@H]2O)[C@@H](O)[C@H](O)[C@H]1O` [EU-A1592] (H-H[Aib]QGTFTSDYSKYLDEK(Melibiouronoyl(1β-O-dodecyl))AAKEFIEWLLQT-OH; lactam 16-20; N-terminus assumed), for which the EC50 at human glucagon receptor is 0.78 nM; on human GLP-1 receptor, 0.25 nM.

Consider `CCCCCCCCCCCCO[C@@H]1O[C@H](CO[C@H]2O[C@H](C(=O)NCCCC[C@H](NC(=O)[C@H](CC(=O)O)NC(=O)[C@H](CO)NC(=O)[C@@H](NC(=O)[C@H](Cc3ccccc3)NC(=O)[C@@H](NC(=O)CNC(=O)[C@H](CCC(N)=O)NC(=O)C(C)(C)NC(=O)[C@@H](N)Cc3c[nH]cn3)[C@@H](C)O)[C@@H](C)O)C(=O)N[C@@H](CO)C(=O)N[C@@H](CCCCN)C(=O)N[C@@H](Cc3ccc(O)cc3)C(=O)N[C@@H](CC(C)C)C(=O)N[C@@H](CC(=O)O)C(=O)N[C@H]3CCC(=O)NCCCC[C@@H](C(=O)N[C@@H](CCC(=O)O)C(=O)N[C@@H](Cc4ccccc4)C(=O)N[C@H](C(=O)N[C@@H](CCC(N)=O)C(=O)N[C@@H](Cc4c[nH]c5ccccc45)C(=O)N[C@@H](CC(C)C)C(=O)N[C@@H](CC(C)C)C(=O)N[C@@H](CCC(N)=O)C(=O)N[C@H](C(N)=O)[C@@H](C)O)[C@@H](C)CC)NC(=O)[C@H](C)NC(=O)[C@H](C)NC(=O)[C@H](CCC(N)=O)NC3=O)[C@H](O)[C@H](O)[C@H]2O)[C@@H](O)[C@H](O)[C@H]1O` [EU-A1594] (H-H[Aib]QGTFTSDK(Melibiouronoyl(1β-O-dodecyl))SKYLDEQAAKEFIQWLLQT-NH2; lactam 16-20), for which the EC50 is 0.068 nM at human glucagon receptor and 0.011 nM on human GLP-1 receptor.

`CCCCCCCCCCCCCCO[C@@H]1O[C@H](CO[C@H]2O[C@H](C(=O)NCCCC[C@H](NC(=O)[C@H](CC(=O)O)NC(=O)[C@H](CO)NC(=O)[C@@H](NC(=O)[C@H](Cc3ccccc3)NC(=O)[C@@H](NC(=O)CNC(=O)[C@H](CCC(N)=O)NC(=O)C(C)(C)NC(=O)[C@@H](N)Cc3c[nH]cn3)[C@@H](C)O)[C@@H](C)O)C(=O)N[C@@H](CO)C(=O)N[C@@H](CCCCN)C(=O)N[C@@H](Cc3ccc(O)cc3)C(=O)N[C@@H](CC(C)C)C(=O)N[C@@H](CC(=O)O)C(=O)N[C@H]3CCC(=O)NCCCC[C@@H](C(=O)N[C@@H](CCC(=O)O)C(=O)N[C@@H](Cc4ccccc4)C(=O)N[C@H](C(=O)N[C@@H](CCC(N)=O)C(=O)N[C@@H](Cc4c[nH]c5ccccc45)C(=O)N[C@@H](CC(C)C)C(=O)N[C@@H](CC(C)C)C(=O)N[C@@H](CCC(N)=O)C(=O)N[C@H](C(N)=O)[C@@H](C)O)[C@@H](C)CC)NC(=O)[C@H](C)NC(=O)[C@H](C)NC(=O)[C@H](CCC(N)=O)NC3=O)[C@H](O)[C@H](O)[C@H]2O)[C@@H](O)[C@H](O)[C@H]1O` [EU-A1595] (H-H[Aib]QGTFTSDK(X2)SKYLDEQAAKEFIQWLLQT-NH2; lactam 16-20; N-terminus assumed): the EC50 came to 0.113 nM at human glucagon receptor and 0.021 nM on human GLP-1 receptor.

The term EC50 denotes the concentration giving half of the maximal effect.
